The values below come from patent US4127720A, “Pyrimido[2,1-a]isoquinoline derivatives having antiallergy activity” (priority 1977, dated 1978).

SMILES strings stand for the structures. Read-outs that look alike come from different tables or passages of the source.

This assay concerns reagin-mediated rat Passive Cutaneous Anaphylaxis (PCA). Nature of the assay: Reagin-mediated rat Passive Cutaneous Anaphylaxis (PCA) screening test. The assay is classed as in vivo, Sprague-Dawley rats. As for the experimental part: The reagin-mediated rat Passive Cutaneous Anaphylaxis (PCA) screening test used to evaluate the present compounds is generally regarded as one of the best animal models for use in predicting the antiallergy activity of test compounds in man. Briefly, the method consists of passive sensitization of skin sites on the test animals with reaginic antibodies followed after 24 hours by administration of the test drug and antigen challenge. The allergic response is measured by use of Evans' blue dye and is evaluated by the spot diameter at the injection side. Details of the test are provided below.
A substituted ovalbumin antigen is used both as immunogen and challenging antigen. The antigen is prepared as follows: 500 mg. ovalbumin (EA) and 500 mg. K2 CO3 are dissolved in 25 ml. distilled H2 O and stirred at room temperature for 5 minutes. Five hundred (500) mg. dinitrobenzene sulfonic acid, Na^+ salt, (previously recrystallized from hot absolute ethanol) is then added slowly with continued stirring. The reaction mixture is then immediately placed in the dark and allowed to proceed for 2 hours with constant stirring. After 2 hours the mixture is placed in suitable dialysis tubing and dialyzed against 5 changes (4 liters each) of distilled H2 O at 5° C. After dialysis the product is lyophilized and stored at room temperature in a brown or amber container. The antigen obtained will appear as a light yellow, amorphous solid which is very soluble in water or saline. It is designated as DNP denatured ovalbumin (DNP-d EA).
Adult, male Sprague-Dawley rats are used as a source or reagin-rich antisera for the PCA model. Immunization is by a combination of DNP-d EA on Al(OH)3 gel and B. pertussis vaccine. Preparation of the DNP-d EA - gel immunogen is as follows: Dissolve the DNP-d EA in TBS so as to give a concentration of 10 mg./ml. Slowly add 1 ml. of this solution to 10 ml. Al(OH)3 gel (10 mg. solids/ml.) with constant stirring at room temperature. Stir the mixture an additional 30 minutes to insure a uniform adsorption of antigen on gel.
The resulting preparation is then used in combination with phase I B. pertussis vaccine to immunize male S/D rats as follows: For each rat administer 0.1 ml. DNP-d EA - gel suspension intramuscularly in each hind leg (200 μg DNP-d EA and 2 mg. gel total dose). Follow these injections by the intraperitoneal administration of 1.0 ml. B. pertussis vaccine (10-20 × 10^9 organisms). The use of light ether anesthesia during this procedure is recommended to insure proper intramuscular and intraperitoneal injections. Nine days following immunization (but no longer than 10) the animals are exsanguinated by cardiac puncture or abdominal aorta cannulation under ether or pentobarbital anesthesia. The collected whole blood is allowed to clot, the serum separated by centrifugation and the individual serum samples stored frozen until assayed for IgE content.
Individual serum samples should be screened for reaginic antibody concentration before being pooled with other sera, as not all rats respond to immunization procedures with reagin production. A 1:50 saline dilution of serum from each immunized rat is used for this purpose. Intradermal injections of 0.05 ml. of the diluted sera are made in the shaven backs of two small female recipient rats, 100-120 gms. Several serum samples can be tested simultaneously in recipient animals. After a 24 to 48 hour latent period antigen challenge is accomplished by intravenous administration to each rat of 1 mg. DNP-d EA in 0.5 ml. 0.5% Evans' blue dye in saline. Sera which show positive PCA reactions at the 1:50 dilution, as measured 20 to 30 minutes post-challenge are pooled, dispensed in small aliquots and stored at -70° C. or lower until used. Negative sera may be discarded.
The IgE titer of the antisera pool should then be determined. […]

The mark [1] stands for this setting: po, 10 minutes prior to antigen challenge, Table 1, read-out: Rat PCA Test ID50, p.o. (dose of compound that inhibits 50% of the response).
The mark [2] stands for this setting: iv, 1-5 minutes prior to antigen challenge (DSCG: at the time of antigen challenge), read-out: Rat PCA Test ID50, i.v. (dose of compound that inhibits 50% of the response).
The mark [3] stands for this setting: po, 10 minutes prior to antigen challenge, Table II and its footnote, read-out: Rat PCA Test ID50, p.o. (dose of compound that inhibits 50% of the response).

As to `CCOC(=O)c1cnc2n(c1=O)CC(CC)c1ccccc1-2` (racemic) [Example 10B, ethyl (±)-7-Ethyl-6,7-dihydro-4-oxo-4H-pyrimido[2,1-a]isoquinoline-3-carboxylate], the ED50 under setting [1] is 0.13 mg/kg. Consider `C=CCC1Cn2c(ncc(C(=O)OCC)c2=O)-c2cc(OC)ccc21` (racemic) [Example 10D, ethyl (±)-7-Allyl-6,7-dihydro-10-methoxy-4-oxo-4H-pyrimido[2,1-a]-3-carboxylate], for which the ED50 under setting [1] is about 0.31 mg/kg. Regarding `CCC1Cn2c(ncc(C(=O)O)c2=O)-c2ccccc21` (racemic) [Example 11C, (±)-7-ethyl-6,7-dihydro-4-oxo-4H-pyrimido[2,1-a]isoquinoline-3-carboxylic Acid], the ED50 under setting [1] was found to be 0.048 mg/kg.

`C=CCC1Cn2c(ncc(C(=O)O)c2=O)-c2cc(OC)ccc21` (racemic) [Example 11E, (±)-7-allyl-6,7-dihydro-10-methoxy-4-oxo-4H-pyrimido[2,1-a]isoquinoline-3-carboxylic Acid]: the ED50 under setting [1] was about 0.077 mg/kg. As for `CCOC(=O)c1cnc2n(c1=O)CC(CC(OC)OC)c1ccc(OC)cc1-2` (racemic) [Example 22 (CH2 CH(OMe)2), Ethyl (±)-6,7-Dihydro-7-(2,2-dimethoxyethyl)-10-methoxy-4-oxo-4H-pyrimido[2,1-a]isoquinoline-3-carboxylate], the ED50 under setting [1] was about 3.3 mg/kg. In the case of `CCOC(=O)c1cnc2n(c1=O)CC(CC=O)c1ccc(OC)cc1-2` (racemic) [Example 22 (CH2 CHO), Ethyl (±)-7-Formylmethyl-6,7-dihydro-10-methoxy-4-oxo-4H-pyrimido[2,1-a]isoquinoline-3-carboxylate], the ED50 under setting [1] is about 20 mg/kg. Regarding `CCC1Cn2c(ncc(-c3nnn[nH]3)c2=O)-c2ccccc21` (racemic) [Example 23, (±)-7-Ethyl-6,7-dihydro-3-(1H-tetrazol-5-yl)-4H-pyrimido[2,1-a]isoquinol-4-one], the ED50 under setting [1] came out at 0.1 mg/kg. For `O=C(O)c1cnc2c3ccccc3ccn2c1=O` [2,3, 4-Oxo-4H-pyrimido[2,1-a]isoquinoline-3-carboxylic Acid], under setting [2], the ED50 is 0.33 mg/kg. Consider `CCOC(=O)c1cnc2c3ccccc3ccn2c1=O` [Example 1, Ethyl 4-Oxo-4H-pyrimido[2,1-a]isoquinoline-3-carboxylate], for which the ED50 under setting [3] is over 5 mg/kg.

Regarding `CCOC(=O)c1cnc2c3ccccc3ccn2c1=N` [Example 3A, Ethyl 4-Imino-4H-pyrimido[2,1-a]isoquinoline-3-carboxylate], the ED50 under setting [3] was about 0.19 mg/kg. With `O=C(O)c1cnc2c3ccccc3c(O)cn2c1=O` [Example 5, 7-Hydroxy-4-oxo-4H-pyrimido[2,1-a]isoquinoline-3-carboxylic Acid], the ED50 under setting [2] is about 1.7 mg/kg. Regarding `CCOC(=O)c1cnc2n(c1=O)CCc1ccccc1-2` [Example 6, Ethyl 6,7-Dihydro-4-oxo-4H-pyrimido[2,1-a]isoquinoline-3-carboxylate], the ED50 under setting [1] was 2.3 mg/kg. As for `O=C(O)c1cnc2n(c1=O)CCc1ccccc1-2` [Example 7, 6,7-Dihydro-4-oxo-4H-pyrimido[2,1-a]isoquinoline-3-carboxylic Acid], under setting [1], the ED50 amounted to 7.9 mg/kg. For the molecule `O=c1c(-c2nnn[nH]2)cnc2c3ccccc3ccn12` [Example 8, 3-(1H-Tetrazol-5-yl)-4H-pyrimido[2,1-a]isoquinol-4-one], the ED50 under setting [2] is 0.04 mg/kg. For `CCOC(=O)c1cnc2n(c1=O)CCc1cc(OC)ccc1-2` [Example 9, Ethyl 6,7-Dihydro-9-methoxy-4-oxo-4H-pyrimido[2,1-a]isoquinoline-3-carboxylate], the ED50 under setting [1] is about 13 mg/kg. `CCOC(=O)c1cnc2n(c1=O)CCc1ccc(OC)cc1-2` [Example 10A, ethyl 6,7-Dihydro-10-methoxy-4-oxo-4H-pyrimido[2,1-a]isoquinoline-3-carboxylate]: under setting [1], the ED50 was about 0.81 mg/kg. For `CCOC(=O)c1cnc2n(c1=O)CCc1cc(OC)c(OC)cc1-2` [Example 10C, ethyl 6,7-Dihydro-9,10-dimethoxy-4-oxo-4H-pyrimido[2,1-a]isoquinoline-3-carboxylate], the ED50 under setting [1] was about 0.37 mg/kg.
